Bridges are numbered along the chain shown (N, C = ends). [ ]: non-standard residue; d: D form. isopeptide = not defined here; Ahp = NCCCCCCC(=O)O
Legend:
VEGFR2 [1] = test: Antagonism of VEGF-stimulated VEGFR2 phosphorylation, western blot in PAEC overexpressing VEGFR2; assay type: cell-based
[2] = tested on: human umbilical vein endothelial cells (HUVECs); test: HUVEC proliferation assay (cell counting), with or without SU5614; assay type: cell-based; conditions: SU5614 (10 μM) alone, 0 ng/mL peptide, 72 h
Description: As the activation of ERK1/2 pathway in ECs leads to DNA synthesis and cell proliferation, we evaluated whether EP3, EP5 and EP6 peptides were able to stimulate cell growth. A proliferation assay was performed on human umbilical vein endothelial cells (HUVECs). Cells in starvation medium were incubated with increasing concentrations (0.5, 5 and 50 ng/mL) of the selected peptides and VEGF, and cell number was counted after 72 h. […] Cell survival was evaluated by MTT assay in PAEC-VEGFR2 following stimulation with EP6 and equimolar concentration with control peptides for 48 h.
The same proliferation assay was repeated in HUVEC in presence of the tyrosine kinase inhibitor SU5614 (Table 1). In the presence of the inhibitor, the proliferative effect of the EP peptides was suppressed, confirming that EP-induced proliferation was correlated to VEGFR2 phosphorylation.
Human Umbilical Vein Endothelial Cells (HUVECs) were purchased from Lonza (Basel, Switzerland). All experiments were performed on low passage cell cultures. […]
HUVECs were plated at density of 1500 cells/well in 96-well gelatin-coated microplates. […] Cell proliferation was evaluated as number of cells counted per well[35].

VEGFR2 [3] = test: VEGFR2 auto-phosphorylation (agonism), anti-phospho-Tyr western blot in PAEC overexpressing VEGFR2; assay type: cell-based
C57 black mice = test: In vivo Matrigel plug angiogenesis assay; conditions: 500 ng/plug, subcutaneous Matrigel, 10 days, implants inspected and haemoglobin content measured (Fig. 7B)
Description: Figure 7 In vitro and in vivo angiogenic properties of EP peptides. (A) HUVECs were plated onto a layer of basement membrane matrix (Matrigel) and incubated at 37 °C for 18 h in the presence of EP3, EP5, EP6 and VEGF (50 ng/mL). After treatment, photomicrographs of tubular structures (Top) were quantified as angiogenic index, calculated as the number of complete circles counted/field by microscope image analysis (Bottom). *p < 0.05 vs basal control. (B) In vivo Matrigel angiogenesis assay was performed by injecting Matrigel solution containing 500 ng of the selected EP peptides into the dorsal midline region of C57 black mice. […] After 10 days Matrigel implants were recovered (Top) and analyzed for their haemoglobin content (bottom). *p < 0.05 and **p < 0.01 vs Matrigel alone.
The pro-angiogenic activity of EP peptides was evaluated by an in vivo test, using Matrigel plugs loaded with EP3, EP5 or EP6 peptides or VEGF (500 ng/plug). […] The hemoglobin content of explanted plugs was measured by a spectrophotometric assay (Fig. 7B, Bottom).
In vivo Matrigel angiogenesis assay was performed as previously described. […] Plugs were resuspended in 1 ml of Drabkin’s reagent for 18 h on ice and haemoglobin concentration was determined by absorbance at 540 nm and compared with a standard curve (Sigma-Aldrich, Milan, Italy).

[4] = molecular target: T1, second domain of VEGFR1 (VEGFR1D2) (UniProt P17948 129-229); test: NMR titration; 2D [15N,1H] HSQC chemical shift perturbation; 110 μM 15N-labeled VEGFR1D2, EP6 added from 27.5 to 550 μM; 20 mM Tris-HCl pH 7.5, 0.02% sodium azide, 10% 2H2O; 298 K; single-site fit, overall apparent KD as mean over the residues of the binding site; conditions: both partners purified
T1 construct: VEGFR1 (vascular endothelial growth factor receptor 1), second domain; The shifts were mapped onto the NMR structure PDB 1QSV of VEGFR1D2; also called domain 2 of VEGFR1; source: recombinant; 15N-labeled for the HSQC titration
T1 sequence (P17948 129-229): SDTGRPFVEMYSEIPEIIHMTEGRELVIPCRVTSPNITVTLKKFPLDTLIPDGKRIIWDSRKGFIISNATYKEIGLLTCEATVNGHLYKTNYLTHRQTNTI

## Cc1cc(C)c(/C=C2\C(=O)Nc3ccc(Cl)cc32)[nH]1 [SU5614]
VEGFR2 [1]; EP/control peptides 50 ng/mL 15 min, then VEGF 50 ng/mL 15 min, SU5614 10 μM (Fig. 2B)
  antagonism of VEGF-stimulated VEGFR2 phosphorylation (in words): inhibited
VEGFR2 [1]; peptide 50 ng/mL pretreatment 15 min, then VEGF 50 ng/mL for additional 15 min, serum deprivation, SU5614 10 μM, western blot quantification, representative of three experiments
  VEGFR2 phosphorylation after VEGF, ∆ of fold increase respect to VEGF induced response: 0.15 ± 0.05 ∆ of fold increase respect to VEGF induced response
[2]
  HUVEC proliferation, cells counted/well: 63.5 ± 8.7 cells counted/well

## Vascular Endothelial Growth Factor [VEGF]
VEGFR2 [3]; 50 ng/mL each, 15 min at 37 °C, PAEC overexpressing VEGFR2, western blot quantification, anti-phospho-Tyr, gels representative of three experiments
  VEGFR2 phosphorylation, fold increase respect to Ctr: 6.5 ± 1.3 fold increase respect to Ctr
VEGFR2 [3]; 50 ng/mL, 15 min, PAEC overexpressing VEGFR2 (Fig. 2A)
  VEGFR2 phosphorylation induced (in words): induced VEGFR2 phosphorylation
C57 black mice
  blood vessel formation / angiogenesis in Matrigel plugs (in words): blood vessel formation was observed

B1: EP6 peptide (mini-VEGF; AcHx ligated to Hn6) (peptide)
chain: Ac-EKFMDVYQLKYKGIC[Ahp]QIMRIKPHQGQHIGETS-NH2
modifications: bridge 1-15 via isopeptide; reading uncertain; also: two peptides Hx (1-14, C-terminal amide after Ile14) and Hn (15-33) joined by isopeptide bond
[4]
  Kd: 139 µM
